Reference: ChEMBL document CHEMBL1155039, “Synthetic antimicrobial peptidomimetics with therapeutic potential” (J Med Chem, 2008)
In brackets after ≈: the same amount, converted by molar mass. Several values for one entry are separate records, joined by “and”; a condition that tells them apart may be missing. Identical values can stand only once. Activity calls are given as the source filed them. The calls are words filed in the database; no cut-off is given here.

Legend:
[1] = tested on: Escherichia coli; experiment: Antibacterial activity against Escherichia coli ATCC 25922; assay type: functional
[2] = tested on: Staphylococcus aureus; experiment: Antibacterial activity against methicillin-resistant Staphylococcus aureus ATCC 33591; assay type: functional
[3] = tested on: Pseudomonas aeruginosa; experiment: Antibacterial activity against Pseudomonas aeruginosa ATCC 27853; assay type: functional
[4] = tested on: Staphylococcus aureus; experiment: Antibacterial activity against Staphylococcus aureus ATCC 25923; assay type: functional
[5] = tested on: Staphylococcus aureus; experiment: Antibacterial activity against glycopeptide intermediate-resistant Staphylococcus aureus CCUG 43316; assay type: functional
[6] = Toxicity in human erythrocytes assessed as hemolysis upto 1000 ug/mL; assay type: cell-based; settings: erythrocyte
[7] = tested on: Staphylococcus epidermidis; experiment: Antibacterial activity against methicillin-resistant Staphylococcus epidermidis ATCC 27626; assay type: functional
[8] = Toxicity in human erythrocytes assessed as hemolysis; assay type: cell-based, Erythrocyte
[9] = tested on: Escherichia coli; experiment: Antibacterial activity against Escherichia coli ATCC 25922 upto 150 ug/mL; assay type: functional, organism-based
[10] = tested on: Staphylococcus aureus; experiment: Antibacterial activity against Staphylococcus aureus ATCC 25923 at 8 times MIC after 30 mins; assay type: functional
[11] = Stability assessed as half life in human plasma; assay type: ADME, cell-free
[12] = tested on: Escherichia coli; experiment: Antibacterial activity against Escherichia coli ML-35p; assay type: functional
[13] = tested on: Escherichia coli; experiment: Effect on inner membrane destabilization in Escherichia coli ML-35p at 256 ug/mL; assay type: functional, organism-based
[14] = tested on: Plasma; experiment: Stability assessed as degradation in human plasma upto 4 days; assay type: ADME, cell-free; settings: 96 h
[15] = Effect on permeability assessed as calcein release from 1-palmitoyl-2-oleoyl-sn-glycero-3-phosphoglycerol vesicle; assay type: physicochemical
[16] = tested on: Escherichia coli; experiment: Effect on outer membrane destabilization in Escherichia coli ML-35p at 128 ug/mL; assay type: functional, organism-based

SMILES	MIC [1] [µM]	MIC [2] [µM]	MIC [3] [µM]	MIC [4] [µM]	MIC [5] [µM]	Activity [6]	MIC [7]	EC50 [8] [µM]	Activity [9]	CFU/ml [10]	half-life [11] [h]	MIC [12] [µg/mL]	Activity [13]	Activity [14]	Activity [15]	Activity [16]
CC(C)(C)c1cc(C(C)(C)C)c2[nH]c(C(C)(C)C)c(C[C@H](NC(=O)[C@@H](N)CCCNC(=N)N)C(=O)N[C@@H](CCCNC(=N)N)C(N)=O)c2c1	88 (≈ 60.2 µg/mL)	11 (≈ 7.52 µg/mL)	44 (≈ 30.1 µg/mL)	11 (≈ 7.52 µg/mL)	22 (≈ 15 µg/mL)	Not Active	3.7 µM (≈ 2.53 µg/mL)									
CC(C)(C)c1cc(C(C)(C)C)c2[nH]c(C(C)(C)C)c(C[C@H](N)C(=O)N[C@@H](CCCNC(=N)N)C(N)=O)c2c1		28 (≈ 14.8 µg/mL)	57 (≈ 30.1 µg/mL)	28 (≈ 14.8 µg/mL)	57 (≈ 30.1 µg/mL)		14 µM (≈ 7.39 µg/mL)	578	inactive							
CC(C)(C)c1cc(C(C)(C)C)c2[nH]c(C(C)(C)C)c(C[C@H](NC(=O)[C@@H](N)CCCNC(=N)N)C(=O)N[C@@H](CCCNC(=N)N)C(=O)NCc3ccccc3)c2c1	9.7 (≈ 7.51 µg/mL)	3.2 (≈ 2.48 µg/mL)	6.5 (≈ 5.03 µg/mL)	3.2 (≈ 2.48 µg/mL)	3.2 (≈ 2.48 µg/mL)		1.3 µM (≈ 1.01 µg/mL)	116								
COC(=O)[C@H](CCCNC(=N)N)NC(=O)[C@H](Cc1c(C(C)(C)C)[nH]c2c(C(C)(C)C)cc(C(C)(C)C)cc12)NC(=O)[C@@H](N)CCCNC(=N)N	29 (≈ 20.3 µg/mL)	3.6 (≈ 2.52 µg/mL)	21 (≈ 14.7 µg/mL)	7.2 (≈ 5.03 µg/mL)	11 (≈ 7.69 µg/mL)		1 µg/mL and 1.4 µM	1010		10000	2	32 (≈ 45.8 µM)	Active	Stable	Dose-dependent effect	Active
CC(C)(C)c1cc(C(C)(C)C)c2[nH]c(C(C)(C)C)c(C[C@H](N)C(=O)N[C@@H](CCCNC(=N)N)C(=O)NCc3ccccc3)c2c1	16 (≈ 9.89 µg/mL)	4 (≈ 2.47 µg/mL)	12 (≈ 7.41 µg/mL)	4 (≈ 2.47 µg/mL)	8.1 (≈ 5 µg/mL)		4 µM (≈ 2.47 µg/mL)	97								
CC(C)(C)c1cc(C(C)(C)C)c2[nH]c(C(C)(C)C)c(C[C@H](NC(=O)[C@@H](N)CCCCN)C(=O)N[C@@H](CCCNC(=N)N)C(N)=O)c2c1	107 (≈ 70.2 µg/mL)	23 (≈ 15.1 µg/mL)	76 (≈ 49.9 µg/mL)	23 (≈ 15.1 µg/mL)	46 (≈ 30.2 µg/mL)	Not Active	3.8 µM (≈ 2.49 µg/mL)									
COC(=O)[C@H](CCCNC(=N)N)NC(=O)[C@@H](Cc1c(C(C)(C)C)[nH]c2c(C(C)(C)C)cc(C(C)(C)C)cc12)NC(=O)[C@@H](N)CCCNC(=N)N	72 (≈ 50.3 µg/mL)	7.2 (≈ 5.03 µg/mL)	57 (≈ 39.8 µg/mL)	7.2 (≈ 5.03 µg/mL)	21 (≈ 14.7 µg/mL)	Not Active	3.6 µM (≈ 2.52 µg/mL)									
COC(=O)[C@H](CCCNC(=N)N)NC(=O)[C@H](N)Cc1c(C(C)(C)C)[nH]c2c(C(C)(C)C)cc(C(C)(C)C)cc12		28 (≈ 15.2 µg/mL)	92 (≈ 49.9 µg/mL)	28 (≈ 15.2 µg/mL)	55 (≈ 29.9 µg/mL)		14 µM (≈ 7.6 µg/mL)	503	inactive							
COC(=O)[C@H](CCCNC(=N)N)NC(=O)[C@@H](N)Cc1c(C(C)(C)C)[nH]c2c(C(C)(C)C)cc(C(C)(C)C)cc12	55 (≈ 29.9 µg/mL)	9.2 (≈ 4.99 µg/mL)	55 (≈ 29.9 µg/mL)	9.2 (≈ 4.99 µg/mL)	14 (≈ 7.6 µg/mL)		4.6 µM (≈ 2.5 µg/mL)	451								
